Assay results reported in EP0655065B1, “27-HYDROXYRAPAMYCIN AND DERIVATIVES THEREOF” (AMERICAN HOME PRODUCTS CORPORATION, priority 1992, dated 1994).
Several values for one entry are separate records, joined by “and”; a condition that tells them apart may be missing. Equal values may be shown once. Read-outs that look alike come from different tables or passages of the source.

Tests used:
[1] = test system: cells from the thymus of normal BALB/c mice; assay: comitogen-induced thymocyte proliferation procedure (LAF); format: cell-based; details: for IC50: read-out: L A F (IC50)
Experimental: The comitogen-induced thymocyte proliferation procedure (LAF) was used as an in vitro measure of the immunosuppressive effects of representative compounds. Briefly, cells from the thymus of normal BALB/c mice are cultured for 72 hours with PHA and IL-1 and pulsed with tritiated thymidine during the last six hours. Cells are cultured with and without various concentrations of rapamycin, cyclosporin A, or test compound. Cells are harvested and incorporated radioactivity is determined. Inhibition of lymphoproliferation is assessed as percent change in counts per minute from non-drug treated controls. The results are expressed as an IC50.

[2] = half life (stability) in 0.1 M phosphate buffer; format: physicochemical; details: for half-life: 0.1 m phosphate buffer, pH 7.4
Description: The 27-hydroxyrapamycin derivatives of formulas II - X are also expected to resist ring degredative reactions better than rapamycin and 31- and/or 42- substituted rapamycin derivatives of rapamycin.

[3] = test system: pinch skin graft from male DBA/2 donors transplanted to male BALB/c recipients; assay: pinch skin graft survival time; format: in vivo; details: mean graft survival time, intraperitoneally
Experimental: A representative compound of this invention was also evaluated in an in vivo test procedure designed to determine the survival time of pinch skin graft from male DBA/2 donors transplanted to male BALB/c recipients. […] Briefly, a pinch skin graft from the donor is grafted on the dorsum of the recipient as a homograft, and an autograft is used as control in the same region. The recipients are treated with either varying concentrations of cyclosporin A as test control or the test compound, intraperitoneally. Untreated recipients serve as rejection control. The graft is monitored daily and observations are recorded until the graft becomes dry and forms a blackened scab. This is considered as the rejection day. The mean graft survival time (number of days ± S.D.) of the drug treatment group is compared with the control group.

half life ([2]; 0.1 M phosphate buffer (pH 7.4, 37° C))	Compound	inhibition at 0.1 µM ([1]; Mus musculus, T-cell, at 0.1 µM)	inhibition at 1 µM ([1]; Mus musculus, T-cell, at 1 µM)	IC50 ([1]; Mus musculus, Thymocyte, thymocytes cultured 72 hours with PHA and IL-1, tritiated thymidine incorporation)	half-life [2]	Skin Graft (days + SD) ([3]; dose of 4 mg/kg)	IC50 ([1]; Mus musculus, Thymocyte, 72 h)	Skin Graft (days + SD) ([3]; dose of 4 mg/kg, 4 mg/kg)	Skin Graft (days + SD) ([3]; dose of 16 mg/kg, 16 mg/kg)	IC50 ([1]; thymocytes cultured 72 hours with PHA and IL-1, tritiated thymidine incorporation)
–	CO[C@H]1C[C@@H]2CC[C@@H](C)[C@@](O)(O2)C(=O)C(=O)N2CCCC[C@H]2C(=O)O[C@H]([C@H](C)C[C@@H]2CC[C@@H](O)[C@H](OC)C2)CC(OC(C)=O)[C@H](C)/C=C(\C)[C@@H](O)[C@@H](OC)C(=O)[C@H](C)C[C@H](C)/C=C/C=C/C=C/1C (some centres unmarked) [Example 5, 27-Hydroxyrapamycin-27-ester with acetic acid]	69%	94%	99 nM	34 h	–	–	–	–	–
–	CO[C@H]1C[C@@H]2CC[C@@H](C)[C@@](O)(O2)C(=O)C(=O)N2CCCC[C@H]2C(=O)O[C@H]([C@H](C)C[C@@H]2CC[C@@H](O)[C@H](OC)C2)CC(=O)[C@H](C)/C=C(\C)[C@@H](O)[C@@H](OC)C(=O)[C@H](C)C[C@H](C)/C=C/C=C/C=C/1C [Rapamycin]	–	–	–	11.8 h	12.0 ± 1.7 days	4.8 nM	–	–	–
17.5 h	27-Hydroxyrapamycin	–	–	–	–	–	–	8.5 ± 1.2 days and 8.17 ± 0.75 days and 8.00 ± 0.63 days	9.17 ± 0.98^+ days and 9.17 ± 0.75^+ days	3.7 nM
